A short description of data set [1]: Cytotoxicity assay (MTS) on non-infected RAW 264.7 cells. The data set is classed as cell-based. The conditions noted are these: mouse, non-infected RAW 264.7 cells, cytotoxic concentration to induce 50% death of non-infected RAW 264.7 cells; read-out: MNV CC50 ± SD. The procedure: (§1) Norovirus: The experiment was performed as described earlier. In short, RAW 264.7 cells (1 × 10^4 cells/well) were infected with MNV.CW1 in the presence of a dilution series of compounds. Antiviral activity and cytotoxicity were determined using a colometric assay using 3-(4,5-dimethylthiazol-2-yl)-5-(3-carboxymethoxyphenyl)-2-(4-sulfophenyl)-2H-tetrazolium (MTS). The 50% effective concentration (EC50) was defined as the compound concentration that protected 50% of the cells from CPE. The cell viability % was calculated as (ODtreated/ODCC) […] and the 50% cytotoxic concentration (CC50) was defined as the compound concentration that reduces the number of viable cells by 50%.

Data set [2] relates to HuNoV GI.1 replicon (Norwalk replicon). Put plainly: HuNoV GI.1 replicon assay in HG23 cells (RT-qPCR). As to conditions: Norovirus, HG23, 72 h, Norwalk replicon (human GI.1), HG23 cells, 72 h, replicon RNA by RT-qPCR; read-out: HuNoV Replicon EC50 ± SD. It counts as cell-based, Human norovirus. The procedure:
HuNoV GI.1 replicon: The experiment was performed as described earlier with minor modifications. In short, HG23 cells (7.5 × 10^2 cells/well) were seeded into the wells of a 96-well plate without G418 (Geneticin Selective Antibiotic). After 24 h of incubation, serial dilutions of compounds were added. Cells were further incubated for 72 h, then cells were collected for RNA load quantification by RT-qPCR. To determine relative levels of Norwalk virus replicon RNA, β-actin was used as a normalizer and ratios were calculated as previously described.
On the technique in general: Replicon systems follow genome replication, usually without infectious particles.

The subject of data set [3] is Murine norovirus type 1, strain CW1. As to the kind of experiment: MNV-induced CPE reduction assay (MTS read-out) in RAW 264.7 cells. The data set is classed as cell-based. As to conditions: MNV CW1, RAW 264.7 cells, read-out: MNV EC50 ± SD. On the procedure: as §1
Data set [4] has as its system MNV.CW3/S131T and MNV.CW3/Y154F. Put plainly: Antiviral assay on reverse-engineered MNV.CW3 mutant viruses (S131T, Y154F). It counts as cell-based, Murine norovirus. As to conditions: single mutations S131T or Y154F in MNV backbone. The procedure:
The desired mutations were introduced into the MNV.CW3 cDNA clones using the QuikChange II XL mutagenesis kit (Agilent) according to the manufacturer’s instructions. The presence of the desired mutation in the produced construct was confirmed by PCR and sequencing was done by Macrogen Inc. Sequences were analyzed and mutations were detected using the Geneious software.
The MNV.CW3 mutant viral stocks were obtained by transfecting the mutated plasmid pMNV CW3 (kindly provided by Prof. Wobus, University of Michigan) in Huh 7 Lunet cells expressing the MNV receptor CD300lf (kindly provided by Prof. Taube, University of Lübeck). Huh-7 CD300lf cells were cultured under selective pressure of G418. The Huh-7 CD300lf cells were seeded in 6-well plates at a density of 2 × 10^5 cells/mL in 2.5 mL of complete media. After 24 h, the cells were transfected with 2.5 μg of pMNV CW3 plasmid DNA using the TransIT mRNA Transfection Kit (Mirus Bio Corporation) according to the manufacturer’s protocol. Red fluorescent protein (RFP) was used as a positive control for transfection. Transfected cells were incubated for 48 h, cells underwent two freeze thaw cycles and the virus was harvested from the supernatants after centrifugation (10 min, 1000× g) and stored at −80 °C. Virus stocks were passaged for three times on BV-2 cells and followed by two consecutive passages on RAW 264.7 cells. Viral titers were determined by serial dilutions on RAW 264.7 cells seeded in 96-well plates.
The assessment of the antiviral activity of compounds on resistant viruses was performed similarly as the regular antiviral assay on MNV. First, the titer of the resistant viruses was determined by endpoint titration. A concentration of 30× TCID50 was used for each virus in the antiviral assays. RAW 264.7 cells (1 × 10^4 cells/well) were seeded in the presence of a dilution series of compounds and infected. Antiviral activity was determined using the MTS method. The 50% effective concentration (EC50) was defined as the compound concentration that protected 50% of the cells from CPE.

The test system of data set [5] is RAW 264.7 cells. As to the kind of experiment: Cytotoxicity assay (MTS) on non-infected RAW 264.7 cells. The data set is classed as cell-based. The conditions noted are these: RAW 264.7 cells. The procedure: as §1
In data set [6] the test system is MNV. As to the kind of experiment: Time-of-drug-addition assay (TOA) in MNV-infected RAW 264.7 cells. It counts as cell-based, Murine norovirus. The conditions noted are these: time-of-addition experiment. On the procedure:
RAW 264.7 cells (4 × 10^5 cells/mL) were infected with MNV (MOI of 1). After 1 h at 4 °C, cells were washed with cold (4 °C) DMEM to remove unbound viruses. Cells were incubated at 37 °C to start the infection. To study the replication kinetics of MNV supernatant and cells were harvested, from untreated cultures, every 2 h until 24 h post-infection (pi) and viral RNA was quantified by RT-qPCR. In parallel, another set of infected cultures were treated with compound. The compound was added at 2 h intervals and cultures were further incubated until 24 h pi, supernatant and cells were collected separately for determination of the viral RNA by RT-qPCR. The isolation of the extracellular MNV RNA from cell culture supernatant was done by the NucleoSpin RNA Virus Kit (Macherey–Nagel), and the intracellular RNA was extracted from cells by the RNeasy kit (Qiagen).

[7] abbreviates: RAW264.7, concentration inhibiting norovirus induced cell death (CPE) by 50%.

Molecules are shown by their SMILES. Read-outs that look alike come from different tables or passages of the source.

The compound `Cc1cc(C)cc(Sc2c(C(=O)NCc3ccc(CO)cc3)[nH]c3ccc(Cl)cc23)c1` [compound 9, 5-Chloro-3-((3,5-dimethylphenyl)thio)-N-(4-(hydroxymethyl)benzyl)-1H-indole-2-carboxamide] registered a melting point of 212 to 215 °C. Besides, the CC50 in data set [1] came to 31.7 ± 8.01 µM. In data set [2], the EC50 amounted to 11.8 ± 8.4 µM. Besides, the EC50 in data set [3] (setting [7]) is 4.39 ± 4.78 µM.

On to `Cc1cc(C)cc(S(=O)(=O)c2c(C(=O)NCc3ccccc3)[nH]c3ccc(Cl)cc23)c1` [compound 2, N-Benzyl-5-chloro-3-((3,5-dimethylphenyl)sulfonyl)-1H-indole-2-carboxamide], for which the CC50 in data set [1] was over 100 µM. The EC50 was 3.66 ± 0.66 µM in data set [2] and over 100 µM in data set [3] (setting [7]).

For `Cc1cc(C)cc(Cc2c(C(=O)NCc3ccc(CO)cc3)[nH]c3ccc(Cl)cc23)c1` [compound 7, 5-Chloro-3-(3,5-dimethylbenzyl)-N-(4-(hydroxymethyl)benzyl)-1H-indole-2-carboxamide], the melting point is 171 to 174 °C. Also, in data set [1], the CC50 worked out at 9.27 ± 6.6 µM. Besides, the concentration giving a half-maximal response (EC50) in data set [2] was 5.59 ± 2.47 µM. For the same compound, the EC50 in data set [3] (setting [7]) was 0.84 ± 0.22 µM.

Turning to `CCOC(=O)/C=C/[C@H](C[C@@H]1CCNC1=O)NC(=O)[C@@H](CC(=O)[C@@H](NC(=O)c1cc(C)on1)C(C)C)Cc1ccc(F)cc1` [rupintrivir], the “shift in EC50 / sensitivity of mutant viruses” value in data set [4] was “remained equally sensitive”.

`O=C(Nc1ccc(CO)cc1)c1[nH]c2ccc(Cl)cc2c1S(=O)(=O)c1ccccc1` [compound 5, 5-Chloro-N-(4-(hydroxymethyl)phenyl)-3-(phenylsulfonyl)-1H-indole-2-carboxamide]: the melting point fell in the range of 152 to 155 °C. Further, the CC50 in data set [1] was determined as 34.9 ± 5.03 µM. In data set [3] (setting [7]), the EC50 is over 100 µM.

Compound `Cc1cc(C)cc(S(=O)(=O)c2c(C(=O)NCc3ccc(O)cc3)[nH]c3ccc(Cl)cc23)c1` [compound 4, 5-Chloro-3-((3,5-dimethylphenyl)sulfonyl)-N-(4-hydroxybenzyl)-1H-indole-2-carboxamide] gave a melting point of 236 to 237 °C. The CC50 in data set [1] was determined as 3.48 ± 1.1 µM. For the same compound, the “cytotoxicity (in words)” value in data set [5] is recorded as “highly cytotoxic”. The EC50 in data set [2] is 88.3 ± 4.75 µM. Besides, the EC50 in data set [3] (setting [7]) is over 100 µM.

As for `C[C@@]1(O)[C@H](O)[C@@H](CO)O[C@H]1n1ccc(N)nc1=O` [2CMC, 2′-C-methylcytidine, reference compound], the “shift in EC50 / sensitivity of mutant viruses” value in data set [4] was “remained equally sensitive”. The “step of the MNV replication cycle at which the compound acts” value in data set [6] is listed as “onset of the viral genome replication”.

Turning to `Cc1cc(C)cc(S(=O)(=O)c2c(C(=O)NCCO)[nH]c3ccc(Cl)cc23)c1` [compound 3, 5-Chloro-3-((3,5-dimethylphenyl)sulfonyl)-N-(2-hydroxyethyl)-1H-indole-2-carboxamide], the CC50 in data set [1] was determined as 88.7 ± 4.75 µM. Also, the values for the EC50 in data set [2] and in data set [3] (setting [7]) were 47.7 ± 3.39 µM and over 100 µM, respectively.

`O=C(NCc1ccc(CO)cc1)c1[nH]c2ccc(Cl)cc2c1S(=O)(=O)c1ccccc1` [compound 10, 5-Chloro-N-(4-(hydroxymethyl)benzyl)-3-(phenylsulfonyl)-1H-indole-2-carboxamide] had a melting point of 182 to 185 °C. For the same compound, the CC50 in data set [1] was 25.7 ± 34.9 µM. The EC50 in data set [2] was determined as 18.5 ± 16.3 µM. For the same compound, in data set [3] (setting [7]), the EC50 was 0.63 ± 0.48 µM.

Regarding `Cc1cc(C)cc(C(=O)c2c(C(=O)NCc3ccc(CO)cc3)[nH]c3ccc(Cl)cc23)c1` [compound 8, 5-Chloro-3-(3,5-dimethylbenzoyl)-N-(4-(hydroxymethyl)benzyl)-1H-indole-2-carboxamide], the melting point fell in the range of 271 to 274 °C. Also, the CC50 in data set [1] was 7.97 ± 15.3 µM. In data set [3] (setting [7]), the EC50 was over 100 µM.

`Cc1cc(C)cc(S(=O)(=O)c2c(C(=O)NCCc3ccc(O)cc3)[nH]c3ccc(Cl)cc23)c1` [compound 11, 5-Chloro-3-((3,5-dimethylphenyl)sulfonyl)-N-(4-hydroxyphenethyl)-1H-indole-2-carboxamide] displayed a melting point of 231 to 234 °C. The CC50 in data set [1] amounted to 8.49 ± 8.09 µM. Moreover, the “cytotoxicity (in words)” value in data set [5] is recorded as “highly cytotoxic”. In addition, in data set [2], the EC50 came to 27.5 ± 28.7 µM. Further, the EC50 in data set [3] (setting [7]) stood at 36 ± 23.3 µM.

In turn, `Cc1cc(C)cc(S(=O)(=O)c2c(C(=O)Nc3ccc(CO)cc3)[nH]c3ccc(Cl)cc23)c1` [compound 1, 5-Chloro-3-((3,5-dimethylphenyl)sulfonyl)-N-(4-(hydroxymethyl)phenyl)-1H-indole-2-carboxamide] came in with a melting point of 220 to 221 °C. Also, the CC50 in data set [1] was over 100 µM. The concentration for a half-maximal effect (EC50) in data set [2] was about 2 µM. The EC50 in data set [3] (setting [7]) amounted to 0.5 ± 0.1 µM. Moreover, the EC50 in data set [3] (concentration inhibiting norovirus induced cell death (CPE) by 50%) worked out at 0.52 ± 0.07 µM.

As a reminder, the melting point is the temperature of the solid-liquid transition. One may read the CC50 as the concentration at which the toxic effect on the cells reaches its halfway point. What is called EC50 is the concentration that produces a half-maximal response.
